Columns and labels:
Assay in all cases: biochemical
KRas G12D = KRas G12D (Homo sapiens, UniProt P01116, G12D);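 note: TR-FRET displacement binding assay on KRas, read after a one-hour incubation at room temperature, IC50 fitted from percent-of-control values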
Protocol: (§1) The ability of a compound to bind to KRas was measured using a TR-FRET displacement assay. […] After a 60-minute incubation at room temperature, the reaction was measured using a BMG LABTECH CLARIO star Plus via TR-FRET. […] The POC values were fit to a 4-parameter IC50 equation and the IC50 value reported.

KRas G12V = KRas G12V (Homo sapiens, UniProt P01116, G12V);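 note: KRas binding measured by TR-FRET displacement at room temperature, IC50 fitted from percent of control values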
Protocol: as §1

KRas G12R = KRas G12R (Homo sapiens, UniProt P01116, G12R);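 note: TR-FRET displacement assay of compound binding to KRas, read after one hour at room temperature, potency from a four-parameter fit of percent-of-control values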
Protocol: as §1

KRas G12A = KRas G12A (Homo sapiens, UniProt P01116, G12A);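 note: binding to KRas measured by TR-FRET displacement after one hour at room temperature, IC50 from a four-parameter fit of percent-of-control values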
Protocol: as §1

KRas G12S = KRas G12S (Homo sapiens, UniProt P01116, G12S);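 note: TR-FRET displacement binding to KRas, read after one hour incubation at room temperature, IC50 from four-parameter fit of percent of control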
Protocol: as §1

KRas G12C = KRas G12C (Homo sapiens, UniProt P01116, G12C);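 note: binding to KRas assessed by TR-FRET displacement after one hour incubation at room temperature, potency fitted from percent-of-control values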
Protocol: as §1

KRas WT = KRas WT (Homo sapiens, UniProt P01116);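 note: binding to KRas read as TR-FRET displacement after a one-hour room-temperature incubation, IC50 derived from percent-of-control values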
Chain of KRas WT (P01116 1-169 isoform P01116-2): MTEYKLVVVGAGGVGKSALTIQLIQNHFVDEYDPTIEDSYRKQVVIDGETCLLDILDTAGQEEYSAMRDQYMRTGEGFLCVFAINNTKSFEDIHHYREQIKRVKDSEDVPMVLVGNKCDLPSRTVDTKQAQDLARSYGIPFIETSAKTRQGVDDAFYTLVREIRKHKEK
Protocol: as §1

Chain of KRas G12R (P01116 1-169 isoform P01116-2 G12R): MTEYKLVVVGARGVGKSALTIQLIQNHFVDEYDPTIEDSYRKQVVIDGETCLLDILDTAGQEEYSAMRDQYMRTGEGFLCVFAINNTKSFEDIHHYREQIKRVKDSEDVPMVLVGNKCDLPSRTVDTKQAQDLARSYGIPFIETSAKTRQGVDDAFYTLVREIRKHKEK
Chain of KRas G12A (P01116 1-169 isoform P01116-2 G12A): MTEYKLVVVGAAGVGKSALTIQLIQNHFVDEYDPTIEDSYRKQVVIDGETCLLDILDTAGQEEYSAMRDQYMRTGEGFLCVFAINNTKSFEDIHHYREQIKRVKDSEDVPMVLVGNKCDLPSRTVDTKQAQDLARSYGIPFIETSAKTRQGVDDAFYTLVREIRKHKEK
Chain of KRas G12D (P01116 1-169 isoform P01116-2 G12D): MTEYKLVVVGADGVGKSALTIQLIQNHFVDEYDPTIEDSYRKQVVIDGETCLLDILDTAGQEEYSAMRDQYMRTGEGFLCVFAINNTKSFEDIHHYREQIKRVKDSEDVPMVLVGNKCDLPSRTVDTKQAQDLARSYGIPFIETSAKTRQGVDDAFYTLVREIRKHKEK
Chain of KRas G12V (P01116 1-169 isoform P01116-2 G12V): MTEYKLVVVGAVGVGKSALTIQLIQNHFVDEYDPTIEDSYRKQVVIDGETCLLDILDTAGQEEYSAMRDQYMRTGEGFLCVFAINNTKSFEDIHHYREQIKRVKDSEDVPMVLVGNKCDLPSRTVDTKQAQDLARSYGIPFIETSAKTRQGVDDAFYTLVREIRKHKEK
Chain of KRas G12C (P01116 1-169 isoform P01116-2 G12C): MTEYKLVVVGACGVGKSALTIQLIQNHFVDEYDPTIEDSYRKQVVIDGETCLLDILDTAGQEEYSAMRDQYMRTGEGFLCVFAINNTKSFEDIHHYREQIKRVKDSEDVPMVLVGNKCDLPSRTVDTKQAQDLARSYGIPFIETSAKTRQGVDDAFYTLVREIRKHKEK
Chain of KRas G12S (P01116 1-169 isoform P01116-2 G12S): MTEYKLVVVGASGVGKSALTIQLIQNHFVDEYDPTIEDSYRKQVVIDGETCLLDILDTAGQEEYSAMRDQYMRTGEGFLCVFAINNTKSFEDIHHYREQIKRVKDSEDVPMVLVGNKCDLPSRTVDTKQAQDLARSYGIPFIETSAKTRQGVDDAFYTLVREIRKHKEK

| SMILES | IC50 (KRas G12D) [nM] | IC50 (KRas G12V) [nM] | IC50 (KRas G12R) [nM] | IC50 (KRas G12A) [nM] | IC50 (KRas G12S) [nM] | IC50 (KRas G12C) [nM] | IC50 (KRas WT) [nM] |
| --- | --- | --- | --- | --- | --- | --- | --- |
| Fc1c(-c2cccc3cccc(F)c23)ncc2c(Nc3cnc4cnccn34)nc(OCC34CCCN3CCC4)nc12 [Example 34, 8-fluoro-7-(8-fluoronaphthalen-1-yl)-N-(imidazo[1,2-a]pyrazin-3-yl)-2-((tetrahydro-1H-pyrrolizin-7a(5H)-yl)methoxy)pyrido[4,3-d]pyrimidin-4-amine] | 11100 | 15000 | ≥ 100000 | 48700 | 53500 | 35000 | 28100 |
| O=C1NC(=O)C2(CCCN(c3nc(OCC45CCCN4CCC5)nc4c(F)c(-c5cccc6cccc(C(F)F)c56)ncc34)C2)N1 (centres unmarked) [Example 464, 7-(7-(8-(difluoromethyl)naphthalen-1-yl)-8-fluoro-2-((hexahydro-1H-pyrrolizin-7a-yl)methoxy)pyrido[4,3-d]pyrimidin-4-yl)-1,3,7-triazaspiro[4.5]decane-2,4-dione] | 986 | 469 | 513 | 507 | 355 | 459 | 661 |
| C#Cc1c(F)ccc2cc(O)cc(-c3ncc4c(N5CCCC(O)C5)nc(OCCN(C)C)nc4c3F)c12 (centres unmarked) [Example 387, 1-(2-(2-(dimethylamino)ethoxy)-7-(8-ethynyl-7-fluoro-3-hydroxynaphthalen-1-yl)-8-fluoropyrido[4,3-d]pyrimidin-4-yl)piperidin-3-ol] | 124 | 130 | 125 | 128 | 113 | 96 | 106 |
| O=C1CC2(CCCN(c3nc(OCC45CCCN4CCC5)nc4c(F)c(-c5cccc6cccc(C(F)F)c56)ncc34)C2)N1 (centres unmarked) [Example 466, 6-(7-(8-(difluoromethyl)naphthalen-1-yl)-8-fluoro-2-((hexahydro-1H-pyrrolizin-7a-yl)methoxy)pyrido[4,3-d]pyrimidin-4-yl)-1,6-diazaspiro[3.5]nonan-2-one] | 2320 | 1660 | 2260 | 3310 | 2140 | 2310 | 2680 |
| C#Cc1cccc2cccc(-c3ncc4c(N5C[C@@H]6C(=O)NC(=O)[C@@H]6C5)nc(OCC56CCCN5CCC6)nc4c3F)c12 [Example 458, (3aR,6aS)-5-(7-(8-ethynylnaphthalen-1-yl)-8-fluoro-2-((hexahydro-1H-pyrrolizin-7a-yl)methoxy)pyrido[4,3-d]pyrimidin-4-yl)tetrahydropyrrolo[3,4-c]pyrrole-1,3(2H,3aH)-dione] | 15 | 39 | 172 | 97 | 28 | 75 | 53 |
| O=C1NC(=O)C2(CCCN(c3nc(OCC45CCCN4CCC5)nc4c(F)c(-c5cccc6cccc(CO)c56)ncc34)C2)N1 (centres unmarked) [Example 447, 7-(8-fluoro-2-((hexahydro-1H-pyrrolizin-7a-yl)methoxy)-7-(8-(hydroxymethyl)naphthalen-1-yl)pyrido[4,3-d]pyrimidin-4-yl)-1,3,7-triazaspiro[4.5]decane-2,4-dione] | 1100 | 744 | 964 | 665 | 587 | 608 | 557 |
| CCc1cccc2cccc(-c3ncc4c(NCc5cn[nH]c5)nc(OCC56CCCN5CCC6)nc4c3F)c12 [Example 287, N-((1H-pyrazol-4-yl)methyl)-7-(8-ethylnaphthalen-1-yl)-8-fluoro-2-((hexahydro-1H-pyrrolizin-7a-yl)methoxy)pyrido[4,3-d]pyrimidin-4-amine] | 8170 | 225 | 225 | 648 | 590 | 321 | 838 |
| O=C1NC(=O)C2(CCCN(c3nc(OCC45CCCN4CCC5)nc4c(F)c(-c5cccc6cccc(Cl)c56)ncc34)C2)N1 (centres unmarked) [Example 282, 7-(7-(8-chloronaphthalen-1-yl)-8-fluoro-2-((hexahydro-1H-pyrrolizin-7a-yl)methoxy)pyrido[4,3-d]pyrimidin-4-yl)-1,3,7-triazaspiro[4.5]decane-2,4-dione] | 30 | 15 | 18 | 16 | 15 | 16 | 15 |
| CCc1cccc2cccc(-c3ncc4c(N5CCCC6(CNC(=O)N6)C5)nc(OCC56CCCN5CCC6)nc4c3F)c12 (centres unmarked) [Example 294, 7-(7-(8-ethylnaphthalen-1-yl)-8-fluoro-2-((hexahydro-1H-pyrrolizin-7a-yl)methoxy)pyrido[4,3-d]pyrimidin-4-yl)-1,3,7-triazaspiro[4.5]decan-2-one] | 9 | 9 | 15 | 13 | 12 | 13 | 14 |

Now from value to molecule:

| IC50 (KRas G12D) [nM] | IC50 (KRas G12V) [nM] | IC50 (KRas G12R) [nM] | IC50 (KRas G12A) [nM] | IC50 (KRas G12S) [nM] | IC50 (KRas G12C) [nM] | IC50 (KRas WT) [nM] | SMILES |
| --- | --- | --- | --- | --- | --- | --- | --- |
| 798 | 652 | 331 | 204 | 217 | 271 | 193 | NS(=O)(=O)CC1CCCN(c2nc(OCC34CCCN3CCC4)nc3c(F)c(-c4cccc5ccccc45)ncc23)C1 (centres unmarked) [Example 436] |
| 2450 | 948 | 593 | 1800 | 2380 | 1900 | 2850 | CCc1cccc2cccc(-c3ncc4c(N5CCCC(c6nc[nH]n6)C5)nc(OCC56CCCN5CCC6)nc4c3F)c12 (centres unmarked) [Example 295, 4-(3-(1H-1,2,4-triazol-3-yl)piperidin-1-yl)-7-(8-ethylnaphthalen-1-yl)-8-fluoro-2-((hexahydro-1H-pyrrolizin-7a-yl)methoxy)pyrido[4,3-d]pyrimidine] |
| 8600 | 1750 | 3630 | 2950 | 3450 | 2390 | 6170 | Fc1c(-c2cccc3cccc(Cl)c23)ncc2c(NCCCOC(F)F)nc(OCC34CCCN3CCC4)nc12 [Example 474, 7-(8-chloronaphthalen-1-yl)-N-(3-(difluoromethoxy)propyl)-8-fluoro-2-((tetrahydro-1H-pyrrolizin-7a(5H)-yl)methoxy)pyrido[4,3-d]pyrimidin-4-amine] |
| 1430 | 2680 | 2760 | 1360 | 904 | 1400 | 715 | C#Cc1cccc2cccc(-c3ncc4c(N5CCCC(CS(N)(=O)=O)C5)nc(OCC56CCCN5CCC6)nc4c3F)c12 (centres unmarked) [Example 437, 1-(1-(7-(8-ethynylnaphthalene-1-yl)-8-fluoro-2-((hexahydro-1H-pyrrolizin-7a-yl)methoxy)pyrido[4,3-d]pyrimidin-4-yl)piperidin-3-yl)methanesulfonamide] |
| 582 | 171 | 176 | 183 | 147 | 207 | 276 | CCc1cccc2cccc(-c3ncc4c(N5CC6CC(O)C(C6)C5)nc(OCC56CCCN5CCC6)nc4c3F)c12 (centres unmarked) [Example 290, 3-(7-(8-ethylnaphthalen-1-yl)-8-fluoro-2-((hexahydro-1H-pyrrolizin-7a-yl)methoxy)pyrido[4,3-d]pyrimidin-4-yl)-3-azabicyclo[3,2,1]octan-6-ol] |

Source: patent US12398154B2, “Azaquinazoline pan-KRas inhibitors” (Mirati Therapeutics, Inc., priority 2020, dated 2025)
